Measurements: ChEMBL document CHEMBL6153097, “Design, synthesis, and biological evaluation of Flavokavain B derivatives as potent TRF2 inhibitors for the treatment of Osteosarcoma” (Eur J Med Chem, 2025)
Activity calls are given as the source filed them. The calls are words filed in the database; no cut-off is given here.

Assays:
[1] = Inhibition of TRF2 expression in human MG-63 cells at 2 uM measured after 48 hrs by Western blot analysis relative to control; assay type: functional
MG-63 [2] = assay: Antiproliferative activity against human MG-63 cells assessed as reduction in cell viability incubated for 48 hrs by MTT assay; assay type: functional, cell-based; conditions: MG-63, 48 h
[3] = Cytotoxicity against […] MLO-Y4 cells assessed as cell viability incubated for 48 hrs by MTT assay; assay type: toxicity, cell-based; conditions: mouse
U2OS [4] = assay: Induction of apoptosis in human U2OS cells assessed as reduction in TRF2 foci at 2 to 4 microM by Immunofluorescence based FISH assay; assay type: functional, cell-based; conditions: dose 2-4 µM
MG-63 [5] = assay: Downregulation of TRF expression levels in human MG-63 cells measured after 48 hrs by Western blot analysis; assay type: functional, cell-based; conditions: dose 2-4 µM
U2OS [6] = assay: Induction of apoptosis in human U2OS cells assessed as early apoptotic cells at 2 uM measured after 48 hrs annexin-V and propidium iodide staining based flow cytometry analysis (reference value: 2.38%); assay type: functional
U2OS [7] = assay: Induction of apoptosis in human U2OS cells assessed as early apoptotic cells at 4 uM measured after 48 hrs annexin-V and propidium iodide staining based flow cytometry analysis (reference value: 2.38%); assay type: functional
MG-63 [8] = assay: Induction of apoptosis in human MG-63 cells assessed as necrotic cells at 2 uM measured after 48 hrs annexin-V and propidium iodide staining based flow cytometry analysis (reference value: 0.52%); assay type: functional
MG-63 [9] = assay: Induction of apoptosis in human MG-63 cells assessed as viable cells at 4 uM measured after 48 hrs annexin-V and propidium iodide staining based flow cytometry analysis (reference value: 90.7%); assay type: functional; conditions: read-out: Activity
MG-63 [10] = assay: Induction of apoptosis in human MG-63 cells assessed as late apoptotic cells at 4 uM measured after 48 hrs annexin-V and propidium iodide staining based flow cytometry analysis (reference value: 7.71%); assay type: functional
MG-63 [11] = assay: Induction of apoptosis in human MG-63 cells assessed as necrotic cells at 4 uM measured after 48 hrs annexin-V and propidium iodide staining based flow cytometry analysis (reference value: 0.52%); assay type: functional
U2OS [12] = assay: Antiproliferative activity against human U2OS cells assessed as reduction in cell viability at 2 to 4 uM measured for 8 days by PDL assay; assay type: functional, cell-based; conditions: dose 2-4 µM, time 8.0 day
MG-63 [13] = assay: Antiproliferative activity against human MG-63 cells assessed as reduction in cell viability at 2 to 4 uM measured for 8 days by PDL assay; assay type: functional, cell-based; conditions: dose 2-4 µM, time 8.0 day
U2OS [14] = assay: Induction of apoptosis in human U2OS cells assessed as reduction in colocalization of TRF2 with telomere at 2 to 4 microM by Immunofluorescence based FISH assay; assay type: functional, cell-based; conditions: dose 2-4 µM
U2OS [15] = assay: Induction of DNA damage response in human U2OS cells assessed as reduction in TRF2 expression by measuring accumulation of telomere-free ends at 2 to 4 uM by FITC/DAPI based Quantitative FISH (Q-FISH) assay; assay type: functional, cell-based; conditions: dose 2-4 µM
MG-63 [16] = assay: Induction of DNA damage response in human MG-63 cells assessed as reduction in TRF2 expression by measuring accumulation of telomere-free ends at 2 to 4 uM by FITC/DAPI based Quantitative FISH (Q-FISH) assay; assay type: functional, cell-based; conditions: dose 2-4 µM
MG-63 [17] = assay: Induction of DNA damage in human MG-63 cells assessed as increase in 53BP1 foci by Immunofluorescence based FISH assay; assay type: functional, cell-based; conditions: dose 2-4 µM
MG-63 [18] = assay: Induction of DNA damage response in human MG-63 cells assessed as telomere dysfunction by measuring telomere length shortening at 2 to 4 uM by Immunofluorescence based FISH assay; assay type: functional, cell-based; conditions: dose 2-4 µM
MG-63 [19] = assay: Induction of DNA damage in human MG-63 cells assessed as increase in telomere dysfunction-foci at 4 uM by Immunofluorescence based FISH assay; assay type: functional, cell-based
U2OS [20] = assay: Induction of DNA damage in human U2OS cells assessed as upregulation of gamma-H2AX level by Immunofluorescence based FISH assay; assay type: functional, cell-based; conditions: dose 2-4 µM
MG-63 [21] = assay: Induction of DNA damage in human MG-63 cells assessed as upregulation of gamma-H2AX level by Immunofluorescence based FISH assay; assay type: functional, cell-based; conditions: dose 2-4 µM
U2OS [22] = assay: Inhibition of TRF2 expression in human U2OS cells by co-immunoprecipitation based Western blot analysis; assay type: functional, cell-based
[23] = Acute toxicity in mouse assessed as effect on body weight at 30 to 90 mg/kg, po single dose measured for 7 days; assay type: organism-based; conditions: in vivo, 168 h, dose 30-90 mg/kg, time 7 day
[24] = Acute toxicity in mouse assessed as aspartate transaminase level (AST) level in serum at 30 to 90 mg/kg, po single dose measured for 7 days; assay type: organism-based; conditions: in vivo, 168 h, dose 30-90 mg/kg, time 7 day
[25] = Acute toxicity in mouse assessed as change in weight of spleen at 30 to 90 mg/kg, po single dose measured for 7 days; assay type: organism-based; conditions: in vivo, 168 h, dose 30-90 mg/kg, time 7 day
[26] = Acute toxicity in mouse assessed as change in weight of lung at 30 to 90 mg/kg, po single dose measured for 7 days; assay type: organism-based; conditions: in vivo, 168 h, dose 30-90 mg/kg, time 7 day
MG-63 [27] = assay: Antitumor activity against human MG-63 cells xenografted in female BALB/c mouse model assessed as tumour growth suppression at 10 to 60 mg/kg, via oral gavage administered once a day for 3 weeks; assay type: functional, organism-based; conditions: dose 10-60 mg/kg
MG-63 [28] = assay: Antitumor activity against human MG-63 cells xenografted in female BALB/c mouse model assessed as reduction in Ki67 level in tumor treated via oral gavage administered once a day for 3 weeks by IHC analysis; assay type: functional, cell-based; conditions: dose 10-60 mg/kg
MG-63 [29] = assay: Antitumor activity against human MG-63 cells xenografted in female BALB/c mouse model assessed as downregulation of TRF2 in tumor treated via oral gavage administered once a day for 3 weeks by IHC analysis; assay type: functional, cell-based; conditions: dose 10-60 mg/kg

COc1cc(OC)c(C(=O)/C=C/c2cccc(Br)c2)c(OC)c1
inhibition at 2 µM [1]: 54%
IC50 (MG-63 [2]): 1.52 µM
IC50 at 48 h [3]: 12.3 µM
Activity (U2OS [4]): Active
Activity (MG-63 [5]): Dose-dependent-effect
Activity (U2OS [6]): 12.9%
Activity (U2OS [7]): 31%
Activity (MG-63 [8]): 2.69%
viability at 4 µM (MG-63 [9]): 17.5%
Activity (MG-63 [10]): 61.9%
Activity (MG-63 [11]): 5.47%
Activity (U2OS [12]): Active
Activity (MG-63 [13]): Active
Activity (U2OS [14]): Active
Activity (U2OS [15]): Active
Activity (MG-63 [16]): Active
Activity (MG-63 [17]): Dose-dependent-effect
Activity (MG-63 [18]): Dose-dependent-effect
Activity (MG-63 [19]): Active
Activity (U2OS [20]): Dose-dependent-effect
Activity (MG-63 [21]): Dose-dependent-effect
inhibition (U2OS [22]): Active
Activity [23]: Non-toxic
Activity [24]: Non-toxic
Activity [25]: Non-toxic
Activity [26]: Non-toxic
Activity (MG-63 [27]): Active; Stronger Than Control Drugs
Activity (MG-63 [28]): Dose-dependent-effect; Compound Showed Significantly Stronger Effect Than Ar And Fkb04
Activity (MG-63 [29]): Dose-dependent-effect
